# From patent US6355799B1, “Substituted benzene compounds, process for their preparation, and herbicidal and defoliant compositions containing them” (ISK Americas Incorporated, priority 1997, dated 2002)
# How the values were obtained:
# Format in all cases: in vivo
# [1] = test system: redroot pigweed (Amaranthus retroflexus, AMARE); experiment: Pre-emerge test, greenhouse herbicide activity screening; conditions: pre-emerge, rated 14 days after application, 0 = no damage, 100 = complete death
# In short: (§1)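 Rating: 0–100 visual injury, 14 DAA. Application: acetone, 187 l/ha, 15–1000 g ai/ha, flat-fan track sprayer with nozzle 40–45 cm above soil or canopy. Post-emerge runs used 0.25% v/v surfactant on 2–3 leaf plants.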
# [2] = test system: field corn (Zea mays L., var. Dekalb 535, CORN); experiment: Pre-emerge test, crop safety; conditions: pre-emerge, rated 14 days after application, 0 = no damage, 100 = complete death
# In short: as §1
# [3] = test system: upland rice (Oryza sp., var. Tebonnet, RICE); experiment: Pre-emerge test, crop safety; conditions: pre-emerge, rated 14 days after application, 0 = no damage, 100 = complete death
# In short: as §1
# [4] = test system: field corn (Zea mays L., var. Dekalb 535, CORN); experiment: Post-emerge test, crop safety; conditions: phytotoxicity rating 0-100 (0 no damage, 100 complete death), 14 days after application
# In short: (§2)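 Each test used a mechanized track sprayer delivering 187 l/ha of acetone solution at 15–1000 g ai/ha. Post-emerge foliage at 2–3 leaves was treated with added 0.25% v/v non-ionic surfactant and bottom-watered only. Injury was assessed on day 14, where 100 means total kill.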
# [5] = test system: upland rice (Oryza sp., var. Tebonnet, RICE); experiment: Post-emerge test, crop safety; conditions: phytotoxicity rating 0-100 (0 no damage, 100 complete death), 14 days after application
# In short: as §2
# [6] = test system: velvetleaf (Abutilon theophrasti, ABUTH); experiment: Post-emerge test, greenhouse herbicide activity screening; conditions: phytotoxicity rating 0-100 (0 no damage, 100 complete death), 14 days after application
# In short: (§3)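 Sandy loam pots; pre-emerge: sown 1 d pre-spray, surface-watered after, then bottom-watered. Post-emerge: sown 8–21 d before, 2–3 leaf stage, + 0.25% v/v NIS, bottom-watered. Acetone, 187 l/ha track spray, 15–1000 g ai/ha. 0–100 injury score, day 14.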
# [7] = test system: large crabgrass (Digitaria sanguinalis, DIGSA); experiment: as above; conditions: phytotoxicity rating 0-100 (0 no damage, 100 complete death), 14 days after application
# In short: as §3
# [8] = test system: common ragweed (Ambrosia artemisizfolia L., AMBEL); experiment: as above; conditions: phytotoxicity rating 0-100 (0 no damage, 100 complete death), 14 days after application
# In short: as §3
# [9] = test system: barnyardgrass (Echinochloa crus-galli, ECHCG); experiment: as above; conditions: phytotoxicity rating 0-100 (0 no damage, 100 complete death), 14 days after application
# In short: as §3
# [10] = test system: sicklepod (Cassia obtusifolia, CASOB); experiment: as above; conditions: phytotoxicity rating 0-100 (0 no damage, 100 complete death), 14 days after application
# In short: as §3
# [11] = test system: redroot pigweed (Amaranthus retroflexus, AMARE); experiment: as above; conditions: phytotoxicity rating 0-100 (0 no damage, 100 complete death), 14 days after application
# In short: as §3
# [12] = test system: ivyleaf morningglory (Ipomoea hederacea, IPOHE); experiment: as above; conditions: phytotoxicity rating 0-100 (0 no damage, 100 complete death), 14 days after application
# In short: as §3
# [13] = test system: lambsquarters (Chenopodium album, CHEAL); experiment: as above; conditions: phytotoxicity rating 0-100 (0 no damage, 100 complete death), 14 days after application
# In short: as §3
# [14] = test system: green foxtail (Setaria viridis, SETVI); experiment: as above; conditions: phytotoxicity rating 0-100 (0 no damage, 100 complete death), 14 days after application
# In short: as §3
# [15] = test system: velvetleaf (Abutilon theophrasti, ABUTH); experiment: Pre-emerge test, greenhouse herbicide activity screening; conditions: pre-emerge, rated 14 days after application, 0 = no damage, 100 = complete death
# In short: (§4)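 Plants grown in 10 cm pots of sandy loam mix received acetone-dissolved compounds through a moving flat-fan nozzle. Doses ranged from 15 to 1000 g ai/ha. Pre-emerge pots were seeded one day earlier, post-emerge pots 8–21 days earlier. Fourteen days on, each pot was graded 0–100 for damage.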
# [16] = test system: large crabgrass (Digitaria sanguinalis, DIGSA); experiment: as above; conditions: pre-emerge, rated 14 days after application, 0 = no damage, 100 = complete death
# In short: as §4
# [17] = test system: johnsongrass (Sorghum halepense, SORHA); experiment: as above; conditions: pre-emerge, rated 14 days after application, 0 = no damage, 100 = complete death
# In short: as §4
# [18] = test system: common ragweed (Ambrosia artemisizfolia L., AMBEL); experiment: as above; conditions: pre-emerge, rated 14 days after application, 0 = no damage, 100 = complete death
# In short: as §4
# [19] = test system: barnyardgrass (Echinochloa crus-galli, ECHCG); experiment: as above; conditions: pre-emerge, rated 14 days after application, 0 = no damage, 100 = complete death
# In short: as §4
# [20] = test system: sicklepod (Cassia obtusifolia, CASOB); experiment: as above; conditions: pre-emerge, rated 14 days after application, 0 = no damage, 100 = complete death
# In short: as §4
# [21] = test system: ivyleaf morningglory (Ipomoea hederacea, IPOHE); experiment: as above; conditions: pre-emerge, rated 14 days after application, 0 = no damage, 100 = complete death
# In short: as §4
# [22] = test system: lambsquarters (Chenopodium album, CHEAL); experiment: as above; conditions: pre-emerge, rated 14 days after application, 0 = no damage, 100 = complete death
# In short: as §4
# [23] = test system: green foxtail (Setaria viridis, SETVI); experiment: as above; conditions: pre-emerge, rated 14 days after application, 0 = no damage, 100 = complete death
# In short: as §4
structure (smiles),measurement,setting,value
Cn1c(C(F)(F)F)cc(=O)n(-c2c(N)cc(OC(F)F)cc2F)c1=O [Compound 1-51],"Pre-emerge Herbicidal Activity AMARE (phytotoxicity rating, scale 0-100)",[1]; 63 g ai/ha,90
same,"Pre-emerge Herbicidal Activity AMARE (phytotoxicity rating, scale 0-100)",[1]; 250 g ai/ha,100
same,"Pre-emerge crop damage CORN (phytotoxicity rating, scale 0-100)",[2]; 63 g ai/ha,0
same,"Pre-emerge crop damage CORN (phytotoxicity rating, scale 0-100)",[2]; 250 g ai/ha,70
same,"Pre-emerge crop damage RICE (phytotoxicity rating, scale 0-100)",[3]; 63 g ai/ha,10
same,"Pre-emerge crop damage RICE (phytotoxicity rating, scale 0-100)",[3]; 250 g ai/ha,70
same,Post-emerge Herbicidal Activity CORN (crop damage),[4]; 63 g ai/ha,10
same,Post-emerge Herbicidal Activity CORN (crop damage),[4]; 250 g ai/ha,20
same,Post-emerge Herbicidal Activity RICE (crop damage),[5]; 63 g ai/ha,10
same,Post-emerge Herbicidal Activity RICE (crop damage),[5]; 250 g ai/ha,30
same,Post-emerge Herbicidal Activity ABUTH,[6]; 63 g ai/ha,60
same,Post-emerge Herbicidal Activity ABUTH,[6]; 250 g ai/ha,80
same,Post-emerge Herbicidal Activity DIGSA,[7]; 63 g ai/ha,10
same,Post-emerge Herbicidal Activity DIGSA,[7]; 250 g ai/ha,20
same,Post-emerge Herbicidal Activity AMBEL,[8]; 63 g ai/ha,70
same,Post-emerge Herbicidal Activity AMBEL,[8]; 250 g ai/ha,90
same,Post-emerge Herbicidal Activity ECHCG,[9]; 63 g ai/ha,0
same,Post-emerge Herbicidal Activity ECHCG,[9]; 250 g ai/ha,10
same,Post-emerge Herbicidal Activity CASOB,[10]; 63 g ai/ha,40
same,Post-emerge Herbicidal Activity CASOB,[10]; 250 g ai/ha,60
same,Post-emerge Herbicidal Activity AMARE,[11]; 63 g ai/ha,70
same,Post-emerge Herbicidal Activity AMARE,[11]; 250 g ai/ha,70
same,Post-emerge Herbicidal Activity IPOHE,[12]; 63 g ai/ha,40
same,Post-emerge Herbicidal Activity IPOHE,[12]; 250 g ai/ha,95
same,Post-emerge Herbicidal Activity CHEAL,[13]; 63 g ai/ha,30
same,Post-emerge Herbicidal Activity CHEAL,[13]; 250 g ai/ha,95
same,Post-emerge Herbicidal Activity SETVI,[14]; 63 g ai/ha,0
same,Post-emerge Herbicidal Activity SETVI,[14]; 250 g ai/ha,30
same,"Pre-emerge Herbicidal Activity ABUTH (phytotoxicity rating, scale 0-100)",[15]; 63 g ai/ha,90
same,"Pre-emerge Herbicidal Activity ABUTH (phytotoxicity rating, scale 0-100)",[15]; 250 g ai/ha,100
same,"Pre-emerge Herbicidal Activity DIGSA (phytotoxicity rating, scale 0-100)",[16]; 63 g ai/ha,20
same,"Pre-emerge Herbicidal Activity DIGSA (phytotoxicity rating, scale 0-100)",[16]; 250 g ai/ha,90
same,"Pre-emerge Herbicidal Activity SORHA (phytotoxicity rating, scale 0-100)",[17]; 63 g ai/ha,10
same,"Pre-emerge Herbicidal Activity SORHA (phytotoxicity rating, scale 0-100)",[17]; 250 g ai/ha,60
same,"Pre-emerge Herbicidal Activity AMBEL (phytotoxicity rating, scale 0-100)",[18]; 63 g ai/ha,30
same,"Pre-emerge Herbicidal Activity AMBEL (phytotoxicity rating, scale 0-100)",[18]; 250 g ai/ha,80
same,"Pre-emerge Herbicidal Activity ECHCG (phytotoxicity rating, scale 0-100)",[19]; 63 g ai/ha,0
same,"Pre-emerge Herbicidal Activity ECHCG (phytotoxicity rating, scale 0-100)",[19]; 250 g ai/ha,50
same,"Pre-emerge Herbicidal Activity CASOB (phytotoxicity rating, scale 0-100)",[20]; 63 g ai/ha,0
same,"Pre-emerge Herbicidal Activity CASOB (phytotoxicity rating, scale 0-100)",[20]; 250 g ai/ha,30
same,"Pre-emerge Herbicidal Activity IPOHE (phytotoxicity rating, scale 0-100)",[21]; 63 g ai/ha,50
same,"Pre-emerge Herbicidal Activity IPOHE (phytotoxicity rating, scale 0-100)",[21]; 250 g ai/ha,80
same,"Pre-emerge Herbicidal Activity CHEAL (phytotoxicity rating, scale 0-100)",[22]; 63 g ai/ha,90
same,"Pre-emerge Herbicidal Activity CHEAL (phytotoxicity rating, scale 0-100)",[22]; 250 g ai/ha,100
same,"Pre-emerge Herbicidal Activity SETVI (phytotoxicity rating, scale 0-100)",[23]; 63 g ai/ha,30
same,"Pre-emerge Herbicidal Activity SETVI (phytotoxicity rating, scale 0-100)",[23]; 250 g ai/ha,90
